According to patent US20040126823A1, “Modulation of prostaglandin synthesis and cancer growth” (priority 2002, published 2004):

Tested on: Tpl2+/+ macrophages
Experiment: PGE2 levels in LPS treated macrophages (ELISA of culture supernatants)
Format: cell-based, mouse
Conditions: pre-treatment with 20 pM PD98059; Tpl2+/+ macrophages stimulated for 4.5 hrs with LPS
Method: Tpl2+/+ and Tpl2−/− macrophage cultures were stimulated with […] LPS. Culture supernatants collected at 0, 3, 4.5, 6 or 10 hrs were analysed for PGE2 levels by ELISA. Unstimulated Tpl2+/+ and Tpl2−/− macrophage cultures secreted similar levels of PGE2 respectively. PGE2 levels produced by unstimulated cells were given the arbitrary value of 1. The bar graphs show the fold induction of PGE2 (±SD) compared to control untreated cultures.

In the case of `COc1cccc(-c2cc(=O)c3ccccc3o2)c1N` [PD98059], the PGE2 secretion was “inhibited PGE2 secretion”.
